Test results taken from US20060235068A1, “OPHTHALMOLOGICAL SURGERY COLORANT AND DELIVERY SYSTEM” (priority 2000, published 2006).

What was measured:
[1] = system: ILM, the epiretinal membrane; assay: ILM / epiretinal membrane peeling with indocyanine green staining in human patients; type: in vivo; settings: human patients having macular holes, epiretinal membranes, or both
Text: The procedures of Example are followed using human patients having macular holes, epiretinal membrances, or both.

[2] = system: retinal ILM
Protocol: Human cadaveric eyes are examined in the laboratory to determine if the ICG solution stains the retinal ILM. The entire anterior segment of the eye is excised to gain access to the vitreous cavity. […] The dye is left in place on the macula for 5 minutes. […] A bent 22 g needle is used to create the initial ILM tear. Intraocular foreign body forceps are then used to grasp the elevated ILM edge. The ILM is peeled in a continuous, circular manner similar to a capsulorhexis in cataract surgery. In each case, the ILM peel removes 3 to 4 disc diameters of ILM centered approximately on the fovea. Peeled ILM and cadaver eyes are fixed in 10% buffered formalin for histopathologic preparation. Specimens are evaluated by light microscopy.
The peeled ILM and sectioned globes are submitted for histopathologic evaluation and electron microscopy. Periodic acid-Schiff (PAS) stain is used to identify the ILM.

[3] = upon mixing; as marketed; cited from earlier work
[4] = Contrast characteristics of indocyanine green colorant after exposure; type: physicochemical; settings: exposed to air, room temperature and lighted atmospheric conditions; at least 8 hours up to one month after exposure, or longer

CC1(C)C(/C=C/C=C/C=C/C=C2\N(CCCCS(=O)(=O)O)c3ccc4ccccc4c3C2(C)C)=[N+](CCCCS(=O)(=O)[O-])c2ccc3ccccc3c21 [indocyanine green]
peeling of the ILM, the epiretinal membrane or both [1]: Successful peeling
staining of the underlying retina ([2]; after the ICG is removed, needle penetrated through the ILM): unstained underlying retina
staining of the underlying ILM when posterior hyaloid remains attached ([2]; compared with globes in which the posterior cortical vitreous was removed prior to ICG injection): less staining of the underlying ILM
effect of staining on ILM peeling ([2]; contrast between stained ILM and unstained retina): facilitates the continuation of ILM peeling
fluorescence stability [3]: about 10 hours
contrast characteristics after exposure [4]: satisfactory contrast characteristics
